# Test results taken from the supplement of paper PMC10307832.
# How the values were obtained:
# Assay in all cases: relative viability (nuclei count vs DMSO), 5 days (fraction); higher = more cells survive
# AZ505 + Tozasertib = compound: C1CCC(CC1)N(CCNCCC2=C3C(=C(C=C2)O)NC(=O)CO3)C(=O)CCNCCC4=CC(=C(C=C4)Cl)Cl [AZ505] + Cc1cc(Nc2cc(N3CCN(C)CC3)nc(Sc3ccc(NC(=O)C4CC4)cc3)n2)n[nH]1 [Tozasertib] (partner 0.1 µM)
# Outline: (§1)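 One day after seeding in 1536-well plates, lung cancer cell lines were dosed by pin tool. Dosing was either single-drug or a fixed anchor-drug dose plus five library-drug doses (not always all listed) in √10 steps. After 5 days, nuclei were stained in one fix-and-stain step and counted on 4× images, and relative viability is the nuclei count of treated wells over that of vehicle wells, given as the median of duplicate plates.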
# Dactolisib + Bortezomib = compound: Cn1c(=O)n(-c2ccc(C(C)(C)C#N)cc2)c2c3cc(-c4cnc5ccccc5c4)ccc3ncc21 [Dactolisib] + CC(C)C[C@H](NC(=O)[C@H](Cc1ccccc1)NC(=O)c1cnccn1)B(O)O [Bortezomib] (partner 0.002 µM)
# Outline: as §1
# Dactolisib + Foretinib = compound: Cn1c(=O)n(-c2ccc(C(C)(C)C#N)cc2)c2c3cc(-c4cnc5ccccc5c4)ccc3ncc21 [Dactolisib] + COc1cc2c(Oc3ccc(NC(=O)C4(C(=O)Nc5ccc(F)cc5)CC4)cc3F)ccnc2cc1OCCCN1CCOCC1 [Foretinib] (partner 0.25 µM)
# Outline: as §1
# Dactolisib + Linsitinib = compound: Cn1c(=O)n(-c2ccc(C(C)(C)C#N)cc2)c2c3cc(-c4cnc5ccccc5c4)ccc3ncc21 [Dactolisib] + C[C@]1(O)C[C@@H](c2nc(-c3ccc4ccc(-c5ccccc5)nc4c3)c3c(N)nccn32)C1 [Linsitinib] (partner 1 µM)
# Outline: as §1
Cell Line,relative viability (AZ505 + Tozasertib; first compound 0.08 µM),relative viability (AZ505 + Tozasertib; first compound 0.253 µM),relative viability (AZ505 + Tozasertib; first compound 0.8 µM),relative viability (AZ505 + Tozasertib; first compound 2.53 µM),relative viability (AZ505 + Tozasertib; first compound 8 µM),relative viability (Dactolisib + Bortezomib; first compound 0.002 µM),relative viability (Dactolisib + Bortezomib; first compound 0.006325 µM),relative viability (Dactolisib + Bortezomib; first compound 0.02 µM),relative viability (Dactolisib + Bortezomib; first compound 0.06325 µM),relative viability (Dactolisib + Bortezomib; first compound 0.2 µM),relative viability (Dactolisib + Foretinib; first compound 0.002 µM),relative viability (Dactolisib + Foretinib; first compound 0.006325 µM),relative viability (Dactolisib + Foretinib; first compound 0.02 µM),relative viability (Dactolisib + Foretinib; first compound 0.06325 µM),relative viability (Dactolisib + Foretinib; first compound 0.2 µM),relative viability (Dactolisib + Linsitinib; first compound 0.002 µM),relative viability (Dactolisib + Linsitinib; first compound 0.006325 µM),relative viability (Dactolisib + Linsitinib; first compound 0.02 µM),relative viability (Dactolisib + Linsitinib; first compound 0.06325 µM),relative viability (Dactolisib + Linsitinib; first compound 0.2 µM)
H3255,0.639,1.17,0.564,0.503,0.577,0.798,0.693,0.766,0.664,0.39,0.989,0.851,0.793,0.724,0.772,1.13,0.919,0.967,0.626,0.416
NCI-H2087,0.223,0.181,0.244,0.241,0.245,1.04,0.784,0.791,0.548,0.382,0.979,0.919,0.817,0.378,0.33,1.02,0.955,0.919,0.555,0.429
HCC-366,0.128,0.113,0.152,0.132,0.0879,0.963,1.09,0.988,0.593,0.481,0.914,0.986,0.955,0.94,0.368,0.561,0.453,0.487,0.185,0.0961
NCI-H727,0.645,0.53,0.525,–,0.581,1.03,0.58,0.872,0.35,0.267,0.906,0.882,0.762,0.4,0.425,0.271,0.317,0.266,0.213,0.37
LU99A,–,0.306,0.279,0.286,0.332,1.12,0.903,0.543,0.366,0.249,0.742,0.75,0.582,0.386,0.312,0.572,0.468,0.307,0.218,0.223
NCI-H647,0.46,0.425,0.277,0.372,0.363,0.868,0.798,0.42,0.193,0.143,1.15,1.18,1.16,0.211,0.395,1.15,0.898,0.736,0.192,0.146
HCC-78,0.351,0.65,0.381,0.312,0.345,0.483,0.43,0.404,0.269,0.203,0.629,0.589,0.451,0.376,0.338,0.476,0.457,0.383,0.223,0.207
NCI-H1755,0.526,0.595,0.602,0.646,0.564,1.01,0.848,0.933,0.711,0.58,0.903,0.924,0.936,0.676,0.691,0.983,0.971,0.989,0.763,0.622
NCI-H3122,0.381,0.401,0.436,0.355,0.411,1,0.987,1.11,1.09,0.927,0.932,0.934,1.05,1.03,0.855,0.982,0.993,0.989,0.671,0.53
PC-14,0.549,0.594,0.586,0.509,0.554,0.904,0.779,0.905,0.559,0.416,0.982,0.97,0.973,0.592,0.399,1.04,1.02,0.945,0.644,0.407
NCI-H2347,0.492,–,–,–,0.54,0.809,0.916,0.894,0.691,0.402,0.848,1,0.693,0.765,0.486,1.29,0.47,0.893,0.68,0.385
NCI-H2228,0.23,0.279,0.164,0.206,0.236,1.08,0.81,0.541,0.259,0.18,0.875,0.675,0.406,0.191,0.181,0.659,0.488,0.436,0.323,0.193
EKVX,0.372,0.354,0.435,0.38,0.378,1.09,0.997,1.02,0.941,0.396,0.598,0.743,0.652,0.715,0.568,0.896,0.908,0.962,0.682,0.327
HOP-62,0.386,0.436,0.385,0.427,0.383,0.884,0.867,0.518,0.41,0.252,1.26,1.1,0.974,0.747,0.516,1.04,0.626,0.873,0.447,0.342
NCI-H2126,0.816,0.809,0.821,0.806,0.892,1.19,1.16,1.12,0.921,0.551,1.32,1.24,1.08,0.653,0.498,0.807,0.662,0.674,0.521,0.422
EPLC-272H,–,0.392,0.282,0.316,0.25,0.899,0.903,0.721,0.693,0.496,0.623,0.491,0.467,0.308,0.236,1.16,1.09,0.969,0.575,0.491
